23 molecules from patent publication US20250387375A1, “SOFALCONE DERIVATIVES AND MEDICAL USE THEREOF” (KAOHSIUNG MEDICAL UNIVERSITY, priority 2024, published 2025) can be followed below.

The test system of experiment [1] is human platelet suspension (platelet aggregation caused by TxA2 agonist U46619). Kind of experiment: Platelet aggregation reaction test, U46619-induced. Type of experiment: cell-based. As to the method: (§1) Blood samples were collected from healthy donors, and acid-citrate-dextrose (ACD) solution was used as an anticoagulant. The blood samples were centrifuged to obtain platelets, and residual plasma was removed by washing to prepare platelet suspension.
(§2) In the experimental method, a platelet aggregometer (Chrono-Log Co., Havertown, PA, USA) was used for tests. The compound to be tested was added to the platelet suspension and reacted for 3 minutes at 37° C. with stirring (1200 rpm). Then, platelet stimulator U46619 or collagen was added to initiate platelet aggregation, and the test time was 5 minutes. The principle of the platelet aggregation test was: when platelets were stimulated to induce aggregation reaction, the light transmission of the platelet suspension would increase; by calculating changes in light transmission of the platelet suspension before and after being stimulated, the percentage of platelet aggregation could be obtained.

In experiment [2] the test system is human platelet suspension (platelet aggregation caused by collagen). The experiment can be described thus: Platelet aggregation reaction test, collagen-induced. Type of experiment: cell-based. To be noted: read-out: Collagen IC 50. The method, then:
as §1, §2

Structures are written as SMILES.

In the case of `O=C(O)CCCCCOc1ccccc1C(=O)/C=C/c1ccccc1F` [Compound 1], the IC50 was found to be 0.51 µM in experiment [1] and 0.07 µM in experiment [2].

`O=C(O)CCCCCOc1ccccc1C(=O)/C=C/c1cccc(F)c1` [Compound 2]: the IC50 in experiment [1] and in experiment [2] was 0.05 µM throughout.

As to `CC(C)=CCCC(C)=CCOc1ccc(C=CC(=O)c2ccc(OCC=C(C)CCC=C(C)C)cc2OCCCC(=O)O)cc1` [Compound 4], the values for the IC50 in experiment [1] and in experiment [2] were 0.05 µM and 0.06 µM, respectively.

As to `CC(C)=CCCC(C)=CCOc1ccc(C(=O)C=Cc2ccc(OCC=C(C)C)cc2)c(OCCCC(=O)O)c1` [Compound 5], the IC50 in experiment [1] was found to be 4.45 µM; in experiment [2] it was 6.28 µM.

For `CC(C)=CCCC(C)=CCOc1ccc(C=CC(=O)c2ccc(OCC=C(C)CCC=C(C)C)cc2OCCCC(=O)O)cc1` [Compound 6], the IC50 in experiment [1] amounted to 3.66 µM; in experiment [2], 44.4 µM.

Consider `CC(C)=CCCC(C)=CCOc1ccc(C(=O)C=Cc2ccccc2)c(OCCCC(=O)O)c1` [Compound 7], for which the IC50 turned out to be 0.49 µM in experiment [1] and 4.03 µM in experiment [2].

Consider `CCOC(=O)CCCOc1ccccc1C(=O)C=Cc1ccc(OCC=C(C)CCC=C(C)C)cc1` [Compound 8], for which the IC50 turned out to be 2.78 µM in experiment [1] and 4.24 µM in experiment [2].

As to `CC(C)=CCOc1ccc(/C=C/C(=O)c2ccc(F)cc2OCCCC(=O)O)cc1` [Compound 9], the IC50 in experiment [1] stood at 5.44 µM; in experiment [2], 5.14 µM.

Regarding `CC(C)=CCCC(C)=CCOc1ccc(C=CC(=O)c2ccc(F)cc2OCCCC(=O)O)cc1` [Compound 10], the IC50 was 5.24 µM in experiment [1] and 52.5 µM in experiment [2].

Take `O=C(O)CCCCCOc1cc(F)ccc1C(=O)/C=C/c1ccccc1` [Compound 11]: the IC50 is 54.4 µM in experiment [1] and 5.38 µM in experiment [2].

Consider `O=C(O)CCCCCOc1cc(F)ccc1C(=O)/C=C/c1ccc(F)cc1` [Compound 12], for which the IC50 in experiment [1] is 0.5 µM; in experiment [2], 0.43 µM.

For `CC(C)=CCOc1ccc(C(=O)/C=C/c2ccccc2F)c(OCCCC(=O)O)c1` [Compound 13], the IC50 in experiment [1] was 0.51 µM; in experiment [2], 0.65 µM.

Regarding `CC(C)=CCOc1ccc(C(=O)/C=C/c2cccc(F)c2)c(OCCCC(=O)O)c1` [Compound 14], the IC50 in experiment [1] came to 5.18 µM; in experiment [2] it was 7.05 µM.

As to `CC(C)=CCOc1ccc(C(=O)/C=C/c2ccc(F)cc2)c(OCCCC(=O)O)c1` [Compound 15], the IC50 in experiment [1] was found to be 0.05 µM; in experiment [2], 0.35 µM.

Consider `O=C(O)CCCCCOc1cc(F)ccc1C(=O)/C=C/c1ccc(F)cc1` [Compound 16], for which the results for the IC50 in experiment [1] and in experiment [2] were 0.37 µM and 0.62 µM, respectively.

Regarding `COc1ccc(/C=C/C(=O)c2ccc(OC)cc2OCC(=O)O)cc1` [Compound 18], the IC50 was > 100 µM in experiment [1] and 96.2 µM in experiment [2].

`CC(C)=CCOc1ccc(C(=O)/C=C/c2ccccc2OCC=C(C)C)c(OCC(=O)O)c1` [Compound 19]: the IC50 in experiment [1] was determined as 20.3 µM; in experiment [2] it was 15.2 µM.

As to `CC(C)=CCOc1cccc(/C=C/C(=O)c2ccc(OCC=C(C)C)cc2OCC(=O)O)c1` [Compound 20], the IC50 was found to be 20.6 µM in experiment [1] and 28.3 µM in experiment [2].

Turning to `CC(C)=CCOc1ccc(C(=O)/C=C/c2ccc(OCC=C(C)C)c(OCC=C(C)C)c2)c(OCC(=O)O)c1` [Compound 21], the IC50 in experiment [1] came out at 14.4 µM; in experiment [2] it was 29.7 µM.

Turning to `CC(C)=CCOc1ccc(C(=O)/C=C/c2ccccc2)c(OCC(=O)O)c1` [Compound 22], the results for the IC50 in experiment [1] and in experiment [2] were 43.2 µM and 12.8 µM, respectively.

As to `CC(C)=CCOc1ccc(C(=O)/C=C/c2ccc(F)cc2)c(OCC(=O)O)c1` [Compound 23], the IC50 came out at 22.2 µM in experiment [1] and 33.5 µM in experiment [2].

On to `CC(C)=CCOc1ccc(C(=O)/C=C/c2ccc(Cl)cc2)c(OCC(=O)O)c1` [Compound 24], for which the values for the IC50 in experiment [1] and in experiment [2] were 43.4 µM and 67.6 µM, respectively.

With `CC(C)=CCOc1ccc(C(=O)/C=C/c2ccc([N+](=O)[O-])cc2)c(OCC(=O)O)c1` [Compound 25], the IC50 turned out to be 43.8 µM in experiment [1] and 49.2 µM in experiment [2].
